Our source for the relative viability values is the supplement of paper PMC10307832.

Assay in all cases: relative viability (nuclei count vs DMSO), 5 days (fraction); higher = more cells survive
Compound in assay [1]: C[C@]1(O)C[C@@H](c2nc(-c3ccc4ccc(-c5ccccc5)nc4c3)c3c(N)nccn32)C1 [Linsitinib] + N=C(N)NC(=N)NCCc1ccccc1 [Phenformin] (partner 250 µM)
Put shortly: (§1)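 A single step with final 0.05% Triton X-100, 1% formaldehyde and 1 ug/ml Hoechst fixed the cells and stained nuclei 5 days after treatment. Lung cancer cell lines in 1536-well plates had been treated by pin tool the day after seeding with one drug alone or a fixed anchor-drug dose plus five library-drug doses (not always all listed) in √10 steps, and nuclei were counted on 4× images. Relative viability is the ratio of nuclei in treated wells to nuclei in vehicle wells, taken as the median of duplicate plates.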

Compound in assay [2]: C[C@]1(O)C[C@@H](c2nc(-c3ccc4ccc(-c5ccccc5)nc4c3)c3c(N)nccn32)C1 [Linsitinib] + Cc1nc(NC(=O)N2CCC[C@H]2C(N)=O)sc1-c1ccnc(C(C)(C)C(F)(F)F)c1 [Alpelisib] (partner 2 µM)
Put shortly:
as §1

Compound in assay [3]: Cc1ccc(C(=O)N(CCCN)[C@@H](c2nc3cc(Cl)ccc3c(=O)n2Cc2ccccc2)C(C)C)cc1 [Ispinesib] + O=C(CCCCCCC(=O)Nc1ccccc1)NO [Vorinostat] (partner 1 µM)
The gist of the method:
as §1

Compound in assay [4]: Cc1ccc(C(=O)N(CCCN)[C@@H](c2nc3cc(Cl)ccc3c(=O)n2Cc2ccccc2)C(C)C)cc1 [Ispinesib] + C[C@@H](Oc1cc(-c2cnn(C3CCNCC3)c2)cnc1N)c1c(Cl)ccc(F)c1Cl [Crizotinib] (partner 1 µM)
The gist of the method:
as §1

As for NCI-H3122, the relative viability in assay [1] (first compound 0.01 µM) is 0.378; in assay [1] (first compound 0.03162 µM), 0.352; in assay [1] (first compound 0.1 µM), 0.309; in assay [1] (first compound 1 µM) it was 0.335; in assay [2] (first compound 0.01 µM), 0.85; in assay [2] (first compound 0.03162 µM), 0.763. The relative viability in assay [2] (first compound 0.1 µM) was 0.768; in assay [2] (first compound 0.3162 µM), 0.699; in assay [2] (first compound 1 µM), 0.758; in assay [3] (first compound 0.001 µM), 1; in assay [3] (first compound 0.003162 µM), 1.09; in assay [3] (first compound 0.01 µM), 1.07. In addition, the relative viability in assay [3] (first compound 0.03162 µM) turned out to be 0.855; in assay [3] (first compound 0.1 µM) it was 0.119; in assay [4] (first compound 0.001 µM) it was 0.28; in assay [4] (first compound 0.003162 µM) it was 0.27; in assay [4] (first compound 0.01 µM) it was 0.274; in assay [4] (first compound 0.03162 µM), 0.314. The relative viability in assay [4] (first compound 0.1 µM) came to 0.202.

Take PC-3 [JPC-3]: the relative viability in assay [1] (first compound 0.01 µM) came out at 0.464; in assay [1] (first compound 0.03162 µM), 0.48; in assay [1] (first compound 0.1 µM), 0.515; in assay [1] (first compound 0.3162 µM), 0.436; in assay [1] (first compound 1 µM), 0.45; in assay [2] (first compound 0.01 µM) it was 1.03. Moreover, the relative viability turned out to be 1.05 in assay [2] (first compound 0.03162 µM); 1.03 in assay [2] (first compound 0.1 µM); 1.02 in assay [2] (first compound 0.3162 µM); 0.924 in assay [2] (first compound 1 µM); 0.776 in assay [3] (first compound 0.001 µM); 0.977 in assay [3] (first compound 0.003162 µM). Further, the relative viability in assay [3] (first compound 0.01 µM) came to 0.794; in assay [3] (first compound 0.03162 µM), 0.498; in assay [3] (first compound 0.1 µM) it was 0.435; in assay [4] (first compound 0.001 µM) it was 0.906; in assay [4] (first compound 0.003162 µM), 1.04; in assay [4] (first compound 0.01 µM), 1.11. The results for the relative viability in assay [4] (first compound 0.03162 µM) and in assay [4] (first compound 0.1 µM) were 1.04 and 0.913, respectively.

In the case of PC-14, the relative viability in assay [1] (first compound 0.01 µM) amounted to 0.623; in assay [1] (first compound 0.03162 µM), 0.523; in assay [1] (first compound 0.1 µM), 0.58; in assay [1] (first compound 0.3162 µM), 0.533; in assay [1] (first compound 1 µM) it was 0.395; in assay [2] (first compound 0.01 µM) it was 0.799. The relative viability in assay [2] (first compound 0.03162 µM) was 0.89; in assay [2] (first compound 0.1 µM), 0.968; in assay [2] (first compound 0.3162 µM) it was 0.792; in assay [2] (first compound 1 µM), 0.837; in assay [3] (first compound 0.001 µM) it was 0.773; in assay [3] (first compound 0.003162 µM), 0.569. For the same cell line, the relative viability was 0.343 in assay [3] (first compound 0.01 µM); 0.103 in assay [3] (first compound 0.03162 µM); 0.134 in assay [3] (first compound 0.1 µM); 0.967 in assay [4] (first compound 0.001 µM); 0.971 in assay [4] (first compound 0.003162 µM); 1.07 in assay [4] (first compound 0.01 µM). Further, the relative viability was 0.873 in assay [4] (first compound 0.03162 µM) and 0.232 in assay [4] (first compound 0.1 µM).

In the case of RERF-LC-KJ, the relative viability in assay [1] (first compound 0.01 µM) is 0.408; in assay [1] (first compound 0.03162 µM) it was 0.368; in assay [1] (first compound 0.1 µM), 0.463; in assay [1] (first compound 0.3162 µM), 0.425; in assay [1] (first compound 1 µM) it was 0.409; in assay [2] (first compound 0.01 µM), 0.838. In addition, the relative viability came to 0.9 in assay [2] (first compound 0.03162 µM); 0.832 in assay [2] (first compound 0.1 µM); 0.878 in assay [2] (first compound 0.3162 µM); 0.757 in assay [2] (first compound 1 µM); 0.585 in assay [3] (first compound 0.001 µM); 0.679 in assay [3] (first compound 0.003162 µM). In addition, the relative viability came to 0.553 in assay [3] (first compound 0.01 µM); 0.39 in assay [3] (first compound 0.03162 µM); 0.397 in assay [3] (first compound 0.1 µM); 0.884 in assay [4] (first compound 0.001 µM); 0.83 in assay [4] (first compound 0.003162 µM); 0.982 in assay [4] (first compound 0.01 µM). Moreover, the results for the relative viability in assay [4] (first compound 0.03162 µM) and in assay [4] (first compound 0.1 µM) were 0.587 and 0.301, respectively.

Turning to SK-LU-1, the relative viability in assay [1] (first compound 0.01 µM) is 0.558; in assay [1] (first compound 0.1 µM) it was 0.588; in assay [1] (first compound 0.3162 µM), 0.391; in assay [1] (first compound 1 µM) it was 0.325; in assay [2] (first compound 0.01 µM), 0.975; in assay [2] (first compound 0.03162 µM), 0.908. In addition, the relative viability in assay [2] (first compound 0.1 µM) stood at 1.03; in assay [2] (first compound 1 µM) it was 1.09; in assay [3] (first compound 0.001 µM) it was 0.709; in assay [3] (first compound 0.003162 µM), 0.763; in assay [3] (first compound 0.01 µM) it was 0.911; in assay [3] (first compound 0.03162 µM), 0.615. Also, the relative viability turned out to be 0.506 in assay [3] (first compound 0.1 µM); 1.05 in assay [4] (first compound 0.001 µM); 0.932 in assay [4] (first compound 0.003162 µM); 0.968 in assay [4] (first compound 0.01 µM); 0.776 in assay [4] (first compound 0.03162 µM); 0.439 in assay [4] (first compound 0.1 µM).

For the cell line SK-MES-1, the relative viability worked out at 0.645 in assay [1] (first compound 0.01 µM); 0.658 in assay [1] (first compound 0.03162 µM); 0.645 in assay [1] (first compound 0.1 µM); 0.491 in assay [1] (first compound 0.3162 µM); 0.479 in assay [1] (first compound 1 µM); 0.9 in assay [2] (first compound 0.01 µM). Further, the relative viability was found to be 1.02 in assay [2] (first compound 0.03162 µM); 0.907 in assay [2] (first compound 0.1 µM); 0.814 in assay [2] (first compound 0.3162 µM); 0.854 in assay [2] (first compound 1 µM); 1.31 in assay [3] (first compound 0.001 µM); 1.19 in assay [3] (first compound 0.003162 µM). Besides, the relative viability in assay [3] (first compound 0.01 µM) was 1.08; in assay [3] (first compound 0.03162 µM), 0.233; in assay [3] (first compound 0.1 µM), 0.221; in assay [4] (first compound 0.001 µM), 1.07; in assay [4] (first compound 0.003162 µM) it was 1; in assay [4] (first compound 0.01 µM), 1.11. In addition, the relative viability is 0.751 in assay [4] (first compound 0.03162 µM) and 0.284 in assay [4] (first compound 0.1 µM).

For SW 1573, the relative viability turned out to be 0.359 in assay [1] (first compound 0.01 µM); 0.335 in assay [1] (first compound 0.03162 µM); 0.311 in assay [1] (first compound 0.1 µM); 0.244 in assay [1] (first compound 0.3162 µM); 0.203 in assay [1] (first compound 1 µM); 0.677 in assay [2] (first compound 0.01 µM). Besides, the relative viability was determined as 0.831 in assay [2] (first compound 0.03162 µM); 0.761 in assay [2] (first compound 0.1 µM); 0.655 in assay [2] (first compound 0.3162 µM); 0.654 in assay [2] (first compound 1 µM); 0.6 in assay [3] (first compound 0.001 µM); 0.678 in assay [3] (first compound 0.003162 µM). Moreover, the relative viability is 0.646 in assay [3] (first compound 0.01 µM); 0.197 in assay [3] (first compound 0.03162 µM); 0.148 in assay [3] (first compound 0.1 µM); 0.948 in assay [4] (first compound 0.001 µM); 0.66 in assay [4] (first compound 0.003162 µM); 1.03 in assay [4] (first compound 0.01 µM). For the same cell line, the relative viability in assay [4] (first compound 0.03162 µM) came out at 0.724; in assay [4] (first compound 0.1 µM), 0.296.
